Source: PMC9994260, “Cryo-EM structure of the RADAR supramolecular anti-phage defense complex” (Cell, 2023)
“And” between values parts separate entries of the source, which are not always exact repeats. Identical values can stand only once.

Experiments:
E. coli RdrB (EcRdrB) [1] = target: T1, E. coli RdrB (EcRdrB) (Escherichia coli, UniProt A0AAN0NNX4); experiment: HPLC deamination assay (ATP to ITP) after phosphatase treatment; assay type: biochemical; conditions: 1 mM substrate, 1 μM RdrB, 30 min, 37 °C, pH 7.5, 10 mM MgCl2, 100 μM ZnSO4, 50 mM KCl, 1 mM TCEP
T1 construct: full-length, ~90 kDa, N-terminal 6xHis-SUMO2 tag removed by SENP2, expressed in E. coli BL21-RIL; dodecamer; Zn site H152, H154, H498, H530, catalytic E501
T1 sequence (A0AAN0NNX4 1-799): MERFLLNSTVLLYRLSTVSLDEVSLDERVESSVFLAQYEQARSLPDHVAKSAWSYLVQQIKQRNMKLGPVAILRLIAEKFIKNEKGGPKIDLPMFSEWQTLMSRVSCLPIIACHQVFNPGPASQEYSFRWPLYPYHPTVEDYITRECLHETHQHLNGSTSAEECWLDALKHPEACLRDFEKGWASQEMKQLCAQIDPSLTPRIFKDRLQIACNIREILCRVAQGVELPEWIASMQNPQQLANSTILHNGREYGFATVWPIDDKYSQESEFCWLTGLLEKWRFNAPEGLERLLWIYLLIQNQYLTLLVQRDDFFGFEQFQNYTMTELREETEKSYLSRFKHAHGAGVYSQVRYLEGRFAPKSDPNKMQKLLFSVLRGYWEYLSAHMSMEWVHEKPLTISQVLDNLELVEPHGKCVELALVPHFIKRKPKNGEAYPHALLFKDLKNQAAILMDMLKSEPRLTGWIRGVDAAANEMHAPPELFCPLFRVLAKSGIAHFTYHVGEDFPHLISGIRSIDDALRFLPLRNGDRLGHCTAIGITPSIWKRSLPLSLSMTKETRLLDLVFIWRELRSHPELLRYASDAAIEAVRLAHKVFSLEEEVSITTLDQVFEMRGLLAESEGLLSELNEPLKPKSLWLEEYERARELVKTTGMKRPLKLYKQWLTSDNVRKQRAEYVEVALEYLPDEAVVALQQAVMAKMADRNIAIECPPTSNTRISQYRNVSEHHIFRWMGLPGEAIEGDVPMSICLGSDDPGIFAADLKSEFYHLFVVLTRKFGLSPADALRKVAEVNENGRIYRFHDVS

E. coli RdrA (EcRdrA) = target: T2, E. coli RdrA (EcRdrA) (Escherichia coli, UniProt A0AAN0NNX5); experiment: malachite green phosphate release (NTPase); assay type: biochemical; conditions: 1 mM NTP, 5 μM RdrA, 2 h, pH 7.5, 10 mM MgCl2, 50 mM KCl, 1 mM TCEP
T2 construct: full-length, N-terminal 6xHis-SUMO2 tag removed by SENP2, expressed in E. coli BL21-RIL; heptamer, active site between neighbouring subunits; Walker A G81, K82, T83, Walker B D221, D222
T2 sequence (A0AAN0NNX5 1-947): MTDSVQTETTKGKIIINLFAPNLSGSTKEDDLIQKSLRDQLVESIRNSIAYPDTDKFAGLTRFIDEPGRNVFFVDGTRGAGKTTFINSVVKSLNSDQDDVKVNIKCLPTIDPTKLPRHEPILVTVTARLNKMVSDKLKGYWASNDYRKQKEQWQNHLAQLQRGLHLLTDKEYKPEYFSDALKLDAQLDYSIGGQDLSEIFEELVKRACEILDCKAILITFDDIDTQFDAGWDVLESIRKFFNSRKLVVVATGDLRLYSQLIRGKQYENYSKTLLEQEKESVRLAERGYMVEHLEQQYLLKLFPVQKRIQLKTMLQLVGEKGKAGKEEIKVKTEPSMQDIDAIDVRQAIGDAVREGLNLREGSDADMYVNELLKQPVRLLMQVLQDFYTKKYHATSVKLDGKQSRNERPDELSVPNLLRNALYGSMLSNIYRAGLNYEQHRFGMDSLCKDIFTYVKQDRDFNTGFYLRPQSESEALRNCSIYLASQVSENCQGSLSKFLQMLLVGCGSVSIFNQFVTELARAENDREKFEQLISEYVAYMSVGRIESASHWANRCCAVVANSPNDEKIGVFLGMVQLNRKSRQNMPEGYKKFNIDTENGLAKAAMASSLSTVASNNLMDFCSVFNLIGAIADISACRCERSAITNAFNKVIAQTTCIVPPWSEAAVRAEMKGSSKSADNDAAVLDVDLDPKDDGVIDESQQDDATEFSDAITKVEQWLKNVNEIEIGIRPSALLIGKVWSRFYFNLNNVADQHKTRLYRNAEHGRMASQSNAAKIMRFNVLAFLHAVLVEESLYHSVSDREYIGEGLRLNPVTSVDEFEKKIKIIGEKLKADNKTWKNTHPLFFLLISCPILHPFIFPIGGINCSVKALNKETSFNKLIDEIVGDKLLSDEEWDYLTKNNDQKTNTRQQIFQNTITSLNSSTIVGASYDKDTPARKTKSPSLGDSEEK

[2] = target: E. coli RdrA (RADAR system of E. coli P0304799.3) (E. coli P0304799.3); experiment: cryo-EM structure; purified E. coli RdrA alone, 2.40 mg/mL, vitrified at 4°C; Titan Krios 300 kV
[3] = target: S. suis RdrA (RADAR system of Streptococcus suis SS993) (Streptococcus suis SS993); experiment: cryo-EM structure; purified S. suis RdrA alone; Talos Arctica 200 kV; single heptameric rings and double stacked rings picked
[4] = target: E. coli RdrB (RADAR system of E. coli P0304799.3) (E. coli P0304799.3); experiment: cryo-EM structure; purified E. coli RdrB alone, 2.35 mg/mL, vitrified at 4°C; Titan Krios 300 kV
E. coli RdrB (EcRdrB) [5] = target: T1, E. coli RdrB (EcRdrB); experiment: HPLC deamination assay (dATP to dITP) after phosphatase treatment; assay type: biochemical; conditions: 1 mM substrate, 1 μM RdrB, 30 min, 37 °C, pH 7.5, 10 mM MgCl2, 100 μM ZnSO4, 50 mM KCl, 1 mM TCEP

Compound: Nc1ncnc2c1ncn2[C@@H]1O[C@H](COP(=O)(O)OP(=O)(O)OP(=O)(O)O)[C@@H](O)[C@H]1O [ATP]
- HPLC deamination assay (ATP to ITP) after phosphatase treatment (E. coli RdrB (EcRdrB) [1]): E. coli RdrB robustly deaminates both ATP and dATP substrates with equal efficiency
- malachite green phosphate release (NTPase) (E. coli RdrA (EcRdrA)): RdrA is an active ATPase in vitro that preferentially hydrolyzes ATP

Compound: E. coli RdrA (RADAR system of E. coli P0304799.3) (enzyme)
- stoichiometry N [2]: 7

Compound: S. suis RdrA (RADAR system of Streptococcus suis SS993) (enzyme)
- stoichiometry N [3]: 7 and 14

Compound: O=c1[nH]cnc2c1ncn2[C@@H]1O[C@H](COP(=O)(O)OP(=O)(O)OP(=O)(O)O)[C@@H](O)[C@H]1O [ITP]
- malachite green phosphate release (NTPase) (E. coli RdrA (EcRdrA); weak substrate): Compared with ATP, RdrA only weakly hydrolyzes ITP and GTP

Compound: E. coli RdrB (RADAR system of E. coli P0304799.3) (enzyme)
- stoichiometry N [4]: 12

Compound: Nc1ncnc2c1ncn2[C@H]1C[C@H](O)[C@@H](COP(=O)(O)OP(=O)(O)OP(=O)(O)O)O1 [dATP]
- HPLC deamination assay (dATP to dITP) after phosphatase treatment (E. coli RdrB (EcRdrB) [5]): E. coli RdrB robustly deaminates both ATP and dATP substrates with equal efficiency
